Patent US20100210649A1, “PYRIDAZINONES AND FURAN-CONTAINING COMPOUNDS” (Sloan-Kettering Institute for Cancer Research, priority 2006, published 2010)
Where two headings read alike, the source gives them in different places.

Columns and labels:
[1] = test system: H3255; experiment: Non Small Cell Lung Cancer proliferation assay (Alamar Blue reduction), H3255; assay type: cell-based, human; conditions: Homo sapiens, NCI-H3255, dose response 10 M to 5 nM; IC50; read-out: Dose Response (uM) H3255
Method in brief: (§1)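 Proliferation after 48 h compound exposure (1% DMSO final, 37 °C) was read by Alamar Blue reduction over an additional 48 h, fluorescence at 530 nm excitation/590 nm emission. Dose-response runs seeded 250 cells/well; DMSO-only wells as high control.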

[2] = test system: H1118; experiment: Non Small Cell Lung Cancer proliferation assay (Alamar Blue reduction), H1118; assay type: cell-based; conditions: Homo sapiens; read-out: Dose Response (uM) H1118
Method: (§2) Non Small Cell Lung Cancer Proliferation Assay. To perform the assay, the Non Small Cell Lung Cancer lines are diluted in media and plated into 384 well microplates at a final density of 250 cells in […]. To ensure consistency and minimal pipetting error, the cells are plated using the Multidrop 384 with the following settings: Rocker Switch set at 384, Volume 45 and Column 24.
(§3) Low Controls for this assay are made by treating Non Small Cell Lung Cancer cells with 5 ul of staurosporine at 250 uM in 10% DMSO and 1% SDS. [Final concentration in this assay is 25 uM staurosporine in 1% DMSO and 0.1% SDS.]
(§4) High Controls for this assay are made by treating Non Small Cell Lung Cancer cells with 5 ul of 10% DMSO. [Final concentration in this assay is 1% DMSO].
(§5) The remaining wells of the 384 microplate may be treated with different compounds depending on the study. Important Note: All compounds for testing in this assay should be done at the final concentration of 1% DMSO.
(§6) After addition, the cells are placed in cell culture incubator at 37° C. for 48 hours for complete treatment.
(§7) After drug treatment, cytotoxicity is measured by Alamar Blue reduction. 5 μL of Alamar Blue is added to the 384 microplates using the Flexdrop.
(§8) The cells are incubated for 48 hours at 37° C. to complete the Alamar Blue reduction.
(§9) The final step in the assay is to measure the amount of Alamar Blue reduction. […] The Alamar Blue fluorescence is measured at an excitation of 530 nm and emission of 590 nm.
(§10) For the NSCLC project, the cell based assay was screened against a small molecule library of approximately 200,000 compounds. The compound library is stored in our automated robotic freezer (Biophile) at −20° C. in 100% DMSO. Compound freeze and thaw cycles are kept to a minimum. Compounds for use are diluted into the appropriate concentration and plated into 384 well microplates using our custom built low volume 384-well head tool (TPS 384, Apricot Designs Inc., CA, USA). This assay was performed on a fully automated linear track robotic platform (CRS F3 Robot System, Thermo Electron Corp., Ontario, Canada) utilizing several integrated peripherals for plate handling, liquid dispensing, and readout detection. First, non-small cell lung cancer cell lines are dispensed into 384 well microplates (Corning #3712 Tissue Culture Treated Plate, Corning, N.Y., USA) with 5 μL of test compounds at 100 uM in 10% DMSO for screening studies or 1 mM in 10% DMSO to 50 nM in 10% DMSO for dose response studies. The microplates are then placed at 37° C. for 48 hours to complete treatment of cells with compounds. Next, 5 ul of alamar blue was added using a liquid dispenser (Flexprop Precision Dispenser, Perkin Elmer, Mass., USA) and incubated for 48 hours at 37° C. The alamar blue prompt fluorescence was measured on Victor V (Victor^3 V, Perkin Elmer, Mass., USA) and output data files were loaded into ORIS (Oncology Research Informatics System, MSKCC, NY, USA), a screening data acquisition and analysis platform.
(§11) The dose response studies were done with the following standard procedure. First, the cells were counted and dispensed at 250 cells/well into 384-well microplates with compound. The cells were incubated for 48 hours at 37 C to complete treatment, and then alamar blue was added for an additional 48 hours. Finally, alamar blue reduction was measured and the data was loaded into ORIS, our data screening acquisition platform.

[3] = test system: H1734; experiment: Non Small Cell Lung Cancer proliferation assay (Alamar Blue reduction), H1734; assay type: cell-based, human; conditions: Homo sapiens, read-out: Dose Response (uM) H1734
Method: (§12) These cells have a doubling time of 1-2 days. All cell types are adherent and grow in colonies. The cells should be kept at a density between 50,000 cells/mL -500,000 cells/mL to provide for optimum growth and adequate nutrition. The cell line should be maintained at 37° C. in a humidified atmosphere with 5% CO2 in a sterile cell culture incubator.
(§13) Non Small Cell Lung Cancer Proliferation Assay.
as §4
(§14) Important Note: All compounds for testing in this assay should be done at the final concentration of 1% DMSO.
as §6
(§15) After drug treatment, cytotoxicity is measured by Alamar Blue reduction.
as §8, §9
as §10, with “Compounds for use are diluted into the appropriate concentration and plated into 384 well microplates using our custom built low volume 384-well head tool (TPS 384, Apricot Designs Inc., CA, USA).” left out, “First, non-small cell lung cancer cell lines are dispensed into 384 well microplates (Corning #3712 Tissue Culture Treated Plate, Corning, N.Y., USA) with 5 μL of test compounds at 100 uM in 10% DMSO for screening studies or 1 mM in 10% DMSO to 50 nM in 10% DMSO for dose response studies.” left out
as §11

[4] = test system: H2030; experiment: Non Small Cell Lung Cancer proliferation assay (Alamar Blue reduction), H2030; assay type: cell-based, human; conditions: Homo sapiens, NCI-H2030, dose response 10 M to 5 nM; IC50; read-out: Dose Response (uM) H2030
Method in brief: as §1

[5] = test system: H358; experiment: Non Small Cell Lung Cancer proliferation assay (Alamar Blue reduction), H358; assay type: cell-based; conditions: Homo sapiens, read-out: Dose Response (uM) H358
Method: as §12, §13, §4, §14, §6, §15, §8, §9
as §10, with “Compounds for use are diluted into the appropriate concentration and plated into 384 well microplates using our custom built low volume 384-well head tool (TPS 384, Apricot Designs Inc., CA, USA).” left out, “First, non-small cell lung cancer cell lines are dispensed into 384 well microplates (Corning #3712 Tissue Culture Treated Plate, Corning, N.Y., USA) with 5 μL of test compounds at 100 uM in 10% DMSO for screening studies or 1 mM in 10% DMSO to 50 nM in 10% DMSO for dose response studies.” left out
as §11

[6] = test system: H827; experiment: Non Small Cell Lung Cancer proliferation assay (Alamar Blue reduction), H827; assay type: cell-based; conditions: Homo sapiens; read-out: Dose Response (uM) H827
Method: as §12, with “[…] are grown and maintained in Corning 175 cm2 flasks in RPMI 1640 media supplemented with 10% FBS, 1% antibiotic solution, 1% additional glutamine and pyruvate. These” for “These”
as §2, §3, §4, §5, §6, §7, §8, §9, §10

[7] = in vitro; conditions: human
Method: NHBE (normal human bronchiolar epithelial cells) are primary cells obtained from donor lungs and commercially available from Cambrex. The HPL1D (human peripheral lung epithelial) cell line has been immortalized with the SV40 large T-antigen. WI-38: human lung fibroblast cell line. HPLID, NHBE and WI-38 cells will serve as controls in the chemical screens. WT: wildtype; WT*: over-expressed wildtype.
Compounds were tested in dose response studies from […] to 5 nM against several non small cell lung cancer lines: H358, H827, H1118, H1650, H1734, H1975, H2030, and H3255, and were also studied in a 72 hour cytotoxicity assay against the NHBE and WI-38 cell lines.

[8] = test system: H1975; experiment: Non Small Cell Lung Cancer proliferation assay (Alamar Blue reduction), H1975; assay type: cell-based, human; conditions: Homo sapiens, NCI-H1975, dose response 10 M to 5 nM; IC50; read-out: Dose Response (uM) H1975
Method in brief: as §1

[9] = test system: H1650; experiment: Non Small Cell Lung Cancer proliferation assay (Alamar Blue reduction), H1650; assay type: cell-based, human; conditions: Homo sapiens, NCI-H1650, dose response 10 M to 5 nM; IC50; read-out: Dose Response (uM) H1650
Method in brief: as §1

Row | Structure (SMILES) | IC50 [1] | IC50 [2] | IC50 ([3]; NCI-H1734) | IC50 [4] | IC50 ([5]; NCI-H358) | IC50 [6] | IC50 at 72 h ([7]; CytoTox (uM) NHBE) | IC50 at 72 h ([7]; CytoTox (uM) WI-38) | IC50 [8] | IC50 [9] | IC50 ([3]; NCI-H1734, dose response 10 M to 5 nM, IC50) | IC50 ([5]; NCI-H358, dose response 10 M to 5 nM, IC50)
1 | O=c1c(Br)c(SCc2ccccc2)cnn1-c1ccccc1 [compound 257021] | > 10 µM | > 10 µM | > 10 µM | > 10 µM | > 10 µM | > 10 µM | > 10 µM | > 10 µM | > 10 µM | > 10 µM | – | –
2 | O=c1c(Cl)c(SCc2ccccc2)cnn1-c1ccccc1 [compound 257022] | > 10 µM | > 10 µM | > 10 µM | > 10 µM | > 10 µM | > 10 µM | > 10 µM | > 10 µM | > 10 µM | > 10 µM | – | –
3 | N/N=C1\C=NN(c2ccccc2)C(=O)C1Cl (stereo not shown) [compound 257023] | > 10 µM | > 10 µM | > 10 µM | > 10 µM | > 10 µM | > 10 µM | > 10 µM | > 10 µM | > 10 µM | > 10 µM | – | –
4 | CN/N=C1\C=NN(c2ccc(C)cc2)C(=O)C1Cl (stereo not shown) [compound 257025] | > 10 µM | > 10 µM | > 10 µM | > 10 µM | > 10 µM | > 10 µM | > 10 µM | > 10 µM | > 10 µM | > 10 µM | – | –
5 | COc1ccc(=O)n(-c2cccc(C)c2)n1 [compound 257029] | > 10 µM | – | > 10 µM | > 10 µM | > 10 µM | – | > 10 µM | > 10 µM | > 10 µM | > 10 µM | – | –
6 | O=c1c(Cl)c(Cl)cnn1-c1c(Cl)cc(C(F)(F)F)cc1Cl [compound 267059] | > 10 µM | – | > 10 µM | > 10 µM | > 10 µM | – | > 10 µM | > 10 µM | > 10 µM | > 10 µM | – | –
7 | CCN(CC)c1cnn(-c2cccc(C)c2)c(=O)c1Cl [compound 267074] | > 10 µM | – | > 10 µM | > 10 µM | > 10 µM | – | > 10 µM | > 10 µM | > 10 µM | > 10 µM | – | –
8 | CCOc1cnn(-c2cccc(C)c2)c(=O)c1Cl [compound 267075] | > 10 µM | – | – | > 10 µM | – | – | > 10 µM | > 10 µM | > 10 µM | > 10 µM | > 10 µM | > 10 µM
9 | CCN(CC)c1c(Cl)cnn(-c2cccc(C)c2)c1=O [compound 267076] | > 10 µM | – | > 10 µM | > 10 µM | > 10 µM | – | > 10 µM | > 10 µM | > 10 µM | > 10 µM | – | –
10 | Cc1cccc(-n2ncc(N=[N+]=[N-])c(Cl)c2=O)c1 [compound 267082] | > 10 µM | – | > 10 µM | > 10 µM | > 10 µM | – | > 10 µM | > 10 µM | > 10 µM | > 10 µM | – | –
11 | Cc1cccc(-n2ncc(I)cc2=O)c1 [compound 267086] | > 10 µM | – | > 10 µM | > 10 µM | > 10 µM | – | > 10 µM | > 10 µM | 6.76 µM | > 10 µM | – | –
12 | Cc1cccc(-n2nc(OCCCNC(=O)CCC(=O)O)c(Cl)c(Cl)c2=O)c1 [compound 273632] | > 10 µM | – | > 10 µM | > 10 µM | > 10 µM | – | > 10 µM | > 10 µM | > 10 µM | > 10 µM | – | –
13 | O=C(O)CCC(=O)NCCCOc1cccc(-n2ncc(Br)c(Br)c2=O)c1 [compound 273633] | > 10 µM | – | > 10 µM | > 10 µM | > 10 µM | – | > 10 µM | > 10 µM | > 10 µM | > 10 µM | – | –
